19 molecules from patent US10428063B2 (Bayer Pharma Aktiengesellschaft, priority 2015, dated 2019) can be followed below.

Molecules are shown by their SMILES.

catalytic domain of human Bub1 (amino acids 704-1085), sequence (O43683 704-1085): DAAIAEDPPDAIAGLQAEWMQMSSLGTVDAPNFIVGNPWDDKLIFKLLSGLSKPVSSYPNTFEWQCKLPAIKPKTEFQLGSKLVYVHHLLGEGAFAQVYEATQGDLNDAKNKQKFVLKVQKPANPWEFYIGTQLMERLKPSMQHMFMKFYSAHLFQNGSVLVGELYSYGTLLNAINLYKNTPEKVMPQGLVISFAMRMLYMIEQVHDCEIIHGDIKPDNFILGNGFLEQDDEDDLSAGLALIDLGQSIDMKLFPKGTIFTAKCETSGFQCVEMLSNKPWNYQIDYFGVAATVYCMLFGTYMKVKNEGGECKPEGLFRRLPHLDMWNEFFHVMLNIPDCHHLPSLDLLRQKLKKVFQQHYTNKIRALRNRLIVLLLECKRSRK

The test has as its target catalytic domain of human Bub1 (amino acids 704-1085) (Homo sapiens (Human), UniProt O43683). Nature of the test: Bub1 kinase assay (TR-FRET). To be noted: 10 μM ATP, 1 μM peptide substrate, recombinant catalytic domain of human Bub1, read-out: Bub1 kinase assay median IC50. The test is classed as biochemical. An excerpt: Bub1-inhibitory activities of compounds described in the present invention were quantified using a time-resolved fluorescence energy transfer (TR-FRET) kinase assay which measures phosphorylation of the synthetic peptide Biotin-Ahx-VLLPKKSFAEPG (C-terminus in amide form), purchased from e.g. Biosyntan (Berlin, Germany) by the (recombinant) catalytic domain of human Bub1 (amino acids 704-1085), expressed in Hi5 insect cells with an N-terminal His6-tag and purified by affinity- (Ni-NTA) and size exclusion chromatography.
In a typical assay 11 different concentrations of each compound (0.1 nM, 0.33 nM, 1.1 nM, 3.8 nM, 13 nM, 44 nM, 0.15 μM, 0.51 μM, 1.7 μM, 5.9 μM and 20 μM) were tested in duplicate within the same microtiter plate. To this end, 100-fold concentrated compound solutions (in DMSO) were previously prepared by serial dilution (1:3.4) of 2 mM stocks in a clear low volume 384-well source microtiter plate (Greiner Bio-One, Frickenhausen, Germany), from which 50 nl of compounds were transferred into a black low volume test microtiter plate from the same supplier. Subsequently, 2 μl of Bub1 (the final concentration of Bub1 was adjusted depending on the activity of the enzyme lot in order to be within the linear dynamic range of the assay: typically ˜200 ng/ml were used) in aqueous assay buffer [50 mM Tris/HCl pH 7.5, 10 mM magnesium chloride (MgCl2), 200 mM potassium chloride (KCl), 1.0 mM dithiothreitol (DTT), 0.1 mM sodium ortho-vanadate, 1% (v/v) glycerol, 0.01% (w/v) bovine serum albumine (BSA), 0.005% (v/v) Trition X-100 (Sigma), 1× Complete EDTA-free protease inhibitor mixture (Roche)] were added to the compounds in the test plate and the mixture was incubated for 15 min at 22° C. to allow pre-equilibration of the putative enzyme-inhibitor complexes before the start of the kinase reaction, which was initiated by the addition of 3 μl 1.67-fold concentrated solution (in assay buffer) of adenosine-tri-phosphate (ATP, 10 μM final concentration) and peptide substrate (1 μM final concentration). The resulting mixture (5 μl final volume) was incubated at 22° C. during 60 min., and the reaction was stopped by the addition of 5 μl of an aqueous EDTA-solution (50 mM EDTA, in 100 mM HEPES pH 7.5 and 0.2% (w/v) bovine serum albumin) which also contained the TR-FRET detection reagents (0.2 μM streptavidin-XL665 [Cisbio Bioassays, Codolet, France] and 1 nM anti-phosho-Serine antibody [Merck Millipore, cat. #35-002] and 0.4 nM LANCE EU-W1024 labeled anti-mouse IgG antibody [Perkin-Elmer, product no. AD0077, alternatively a Terbium-cryptate-labeled anti-mouse IgG antibody from Cisbio Bioassays can be used]). The stopped reaction mixture was further incubated 1 h at 22° C. in order to allow the formation of complexes between peptides and detection reagents. Subsequently, the amount of product was evaluated by measurement of the resonance energy transfer from the Eu-chelate-antibody complex recognizing the Phosphoserine residue to the streptavidin-XL665 bound to the biotin moiety of the peptide. To this end, the fluorescence emissions at 620 nm and 665 nm after excitation at 330-350 nm were measured in a TR-FRET plate reader, e.g. a Rubystar or Pherastar (both from BMG Labtechnologies, Offenburg, Germany) or a Viewlux (Perkin-Elmer) and the ratio of the emissions (665 nm/622 nm) was taken as indicator for the amount of phosphorylated substrate. The data were normalised using two sets of control wells for high- (=enzyme reaction without inhibitor=0%=Minimum inhibition) and low- (=all assay components without enzyme=100%=Maximum inhibition) Bub1 activity. IC50 values were calculated by fitting the normalized inhibition data to a 4-parameter logistic equation (Minimum, Maximum, IC50, Hill; Y=Max+(Min−Max)/(1+(X/IC50)Hill)).
`CCn1c2c(c(Nc3ccc(F)cc3)c1-c1ccncc1)C(=O)NCC2` [Example 11, 1-ethyl-3-[(4-fluorophenyl)amino]-2-(pyridin-4-yl)-1,5,6,7-tetrahydro-4H-pyrrolo[3,2-c]pyridin-4-one]: the IC50 stood at 64.5 nM.
As for `CN1CCc2[nH]c(-c3ccnc(NC(=O)[C@H]4C[C@H]4F)c3)c(Nc3ccccc3)c2C1=O` (relative stereo) [Example 25, rel-(1R,2R)-2-fluoro-N-{4-[5-methyl-4-oxo-3-(phenylamino)-4,5,6,7-tetrahydro-1H-pyrrolo[3,2-c]pyridin-2-yl]pyridin-2-yl}cyclopropanecarboxamide], the figure is 17.1 nM; as for `O=C1NCCc2[nH]c(-c3ccncc3OCC(F)F)c(Nc3ccc(F)c(F)c3)c21` [Example 43, 2-[3-(2,2-difluoroethoxy)pyridin-4-yl]-3-[(3,4-difluorophenyl)amino]-1,5,6,7-tetrahydro-4H-pyrrolo[3,2-c]pyridin-4-one], 136 nM; as for `O=C1NCCc2[nH]c(-c3ccncc3OCC(F)F)c(Nc3ccc(F)cc3)c21` [Example 42, 2-[3-(2,2-difluoroethoxy)pyridin-4-yl]-3-[(4-fluorophenyl)amino]-1,5,6,7-tetrahydro-4H-pyrrolo[3,2-c]pyridin-4-one], 111 nM.
`COCCOc1cnccc1-c1[nH]c2c(c1Nc1ccc(F)c(F)c1)C(=O)NCC2` [Example 45, 3-[(3,4-difluorophenyl)amino]-2-[3-(2-methoxyethoxy)pyridin-4-yl]-1,5,6,7-tetrahydro-4H-pyrrolo[3,2-c]pyridin-4-one]: the IC50 was 28 nM.
In the case of `CCn1c2c(c(Nc3ccccc3)c1-c1ccncc1)C(=O)NCC2` [Example 5, 1-ethyl-3-(phenylamino)-2-(pyridin-4-yl)-1,5,6,7-tetrahydro-4H-pyrrolo[3,2-c]pyridin-4-one] it was 35.1 nM.
For `Cc1cc(-c2[nH]c3c(c2Nc2ccccc2)C(=O)NCC3)ccn1` [Example 12, 2-(2-methylpyridin-4-yl)-3-(phenylamino)-1,5,6,7-tetrahydro-4H-pyrrolo[3,2-c]pyridin-4-one], the IC50 came to 15.4 nM.
Consider `COCCOc1cnccc1-c1[nH]c2c(c1Nc1ccc(F)cc1)C(=O)NCC2` [Example 46, 3-[(4-fluorophenyl)amino]-2-[3-(2-methoxyethoxy)pyridin-4-yl]-1,5,6,7-tetrahydro-4H-pyrrolo[3,2-c]pyridin-4-one], for which the concentration for half-maximal inhibition (IC50) was 32.8 nM.
In the case of `CCn1c2c(c(Nc3ccccc3)c1-c1ccnc(NC(C)=O)c1)C(=O)NCC2` [Example 15, N-{4-[1-ethyl-4-oxo-3-(phenylamino)-4,5,6,7-tetrahydro-1H-pyrrolo[3,2-c]pyridin-2-yl]pyridin-2-yl}acetamide] it was 79 nM.
In the case of `CCCOc1cnccc1-c1[nH]c2c(c1Nc1ccccc1)C(=O)N(C)CC2` [Example 28, 5-methyl-3-(phenylamino)-2-(3-propoxypyridin-4-yl)-1,5,6,7-tetrahydro-4H-pyrrolo[3,2-c]pyridin-4-one] it was 51.6 nM; in that of `COCCOc1cnccc1-c1[nH]c2c(c1Nc1ccccc1)C(=O)N(C)CC2` [Example 31, 2-[3-(2-methoxyethoxy)pyridin-4-yl]-5-methyl-3-(phenylamino)-1,5,6,7-tetrahydro-4H-pyrrolo[3,2-c]pyridin-4-one], 9.93 nM.
As for `Nc1cc(-c2[nH]c3c(c2Nc2ccccc2)C(=O)NCC3)ccn1` [Example 8, 2-(2-aminopyridin-4-yl)-3-(phenylamino)-1,5,6,7-tetrahydro-4H-pyrrolo[3,2-c]pyridin-4-one], the figure is 138 nM.
As for `O=C1NCCc2[nH]c(-c3ccncc3)c(Nc3ccccc3)c21` [Example 2, 3-(phenylamino)-2-(pyridin-4-yl)-1,5,6,7-tetrahydro-4H-pyrrolo[3,2-c]pyridin-4-one], the IC50 was found to be 7.89 nM.
In the case of `CN1CCc2[nH]c(-c3ccncc3OCCC(F)(F)F)c(Nc3ccccc3)c2C1=O` [Example 33, 5-methyl-3-(phenylamino)-2-[3-(3,3,3-trifluoropropoxy)pyridin-4-yl]-1,5,6,7-tetrahydro-4H-pyrrolo[3,2-c]pyridin-4-one] it was 51.8 nM; in that of `CN1CCc2[nH]c(-c3ccnc(NC(=O)[C@@H]4C[C@@H]4F)c3)c(Nc3ccccc3)c2C1=O` [Example 40, (1S,2S)-2-fluoro-N-{4-[5-methyl-4-oxo-3-(phenylamino)-4,5,6,7-tetrahydro-1H-pyrrolo[3,2-c]pyridin-2-yl]pyridin-2-yl}cyclopropanecarboxamide], 28.1 nM.
In the case of `CN1CCc2[nH]c(-c3ccncc3OCc3ccccc3)c(Nc3ccccc3)c2C1=O` [Example 32, 2-[3-(benzyloxy)pyridin-4-yl]-5-methyl-3-(phenylamino)-1,5,6,7-tetrahydro-4H-pyrrolo[3,2-c]pyridin-4-one] it was 41.6 nM.
In the case of `CC(C)(C)OC(=O)N1CCc2[nH]c(-c3ccncc3)c(Nc3ccccc3)c2C1=O` [Example 6, tert-butyl 4-oxo-3-(phenylamino)-2-(pyridin-4-yl)-1,4,6,7-tetrahydro-5H-pyrrolo[3,2-c]pyridine-5-carboxylate] it was 10.9 nM; in that of `CN1CCc2[nH]c(-c3ccncc3F)c(Nc3ccccc3)c2C1=O` [Example 17, 2-(3-fluoropyridin-4-yl)-5-methyl-3-(phenylamino)-1,5,6,7-tetrahydro-4H-pyrrolo[3,2-c]pyridin-4-one], 8.7 nM; in that of `COCCn1c2c(c(Nc3ccccc3)c1-c1ccncc1)C(=O)NCC2` [Example 9, 1-(2-methoxyethyl)-3-(phenylamino)-2-(pyridin-4-yl)-1,5,6,7-tetrahydro-4H-pyrrolo[3,2-c]pyridin-4-one], 354 nM.

By IC50 is commonly meant the concentration needed to halve the response being measured.
